Measurements reported in patent US20150050682A1, “DIRECT ASSAY OF THIOREDOXIN REDUCTASE ACTIVITY” (University of Vermont and State Agricultural College, priority 2013, published 2015).

How the values were obtained:
[1] = system: thioredoxin reductase (TR); assay: Selenocystine TR assay (SC-TR assay); format: biochemical, mouse; details: for Inhibition of TR activity (NADPH turnover, A340): C10 whole cell lysates, FIG. 2B; for Efficiency of reduction by TR: L- versus racemic selenocystine as substrate
Method: Selenocystine TR assay. Cells were plated into 60 mm tissue culture dishes and the following day were washed with ice-cold 1× phosphate buffered saline (PBS) and lysed in the culture dish by adding either TE Buffer (50 mM Tris/HCl pH 7.5, 1 mM EDTA) or NP-40 lysis buffer (150 mM NaCl, 50 mM Tris pH 8.0, 1% NP-40, 1 μg/mL leupeptin, 1 μg/mL aprotinin, 1 mM NaF, 1 mM NaVO3, 1 mM PMSF) as indicated in the text. Cell lysates were scraped from culture dishes on ice and transferred to 1.5 mL microcentrifuge tubes. TE buffer lysates were sonicated at 4° C. for 30 sec with 1-2 sec pulses using a sonic dismembrator. TE and NP-40 lysates were centrifuged for 10 min at 14,000 rpm at 4° C. and protein concentrations of the supernatants were determined by reading the absorption at 595 nm of Bradford reagent. A total reaction volume of 100 μl was assembled in a clear 96-well round bottom microplate containing the following: (i) master mix containing 1 mM NADPH and 2 mM selenocystine (SC) in ddH2O (addition of 40 μl of master mix to 100 μl reaction volume yields final concentrations of 400 μM and 800 μM respectively), (ii) 25 μg or the largest practical amount of protein, (iii) TE or NP-40 lysis buffer. Controls for each sample included protein only control, protein and NADPH control, and protein and SC control. Control master mixes contained: (i) 2 mM NADPH in ddH2O (addition of 20 μl to 100 μl reaction volume yields final concentration of 400 μM), (ii) 2 mM SC prepared as described above (addition of 40 μl to 100 μl reaction volume yields final concentration of 800 μM).
Each master mix was separately placed into a clean, sterile pipet basin and pipetted quickly into the wells of a 96-well microplate with a multichannel pipetter making sure to avoid bubbles. This approach was used in order that each sample was exposed to the master mix at the same time to ensure homogeneity of results. The plate was read in 30 sec intervals over a 20 min time period at 340 nm on a Synergy HT Microplate Reader™ (BioTek). Because the assay monitors the consumption of NADPH at 340 nm, an activity can be calculated by using Beer's Law and an extinction coefficient of 6,220 M^−1 cm^−1 for NADPH. The activity can be reported as mol NADPH consumed per min. Bradford assays for total protein concentration determination can be performed directly in each well of the 96-well plate. If this is done, then the activity can be reported as mol NADPH consumed per min per mg of total protein. For the data presented in FIGS. 2 and 5, 1 unit of TR activity is defined as the amount of TR that will consume 1 nmol of NADPH per min.

[2] = system: thioredoxin reductase (TR); assay: Discontinuous insulin end-point TR assay; format: biochemical, mouse; details: for Inhibition of TR activity: C10 whole cell lysates, end-point TR assay, FIG. 2A
Method: Discontinuous insulin end-point assay. Cell lysates were prepared in TE buffer as described above and the sonicated lysates were centrifuged for 10 min at 14,000 rpm at 4° C. Supernatants were transferred to fresh 1.5 mL microcentrifuge tubes and protein concentrations were determined by a Bradford assay. A total reaction volume of […] was assembled by addition of 20 μL master mix to 20 μL of 25 μM E. coli Trx solution. The master mix contained 50 mM Tris/Cl pH 7.5, 1 mM EDTA, 900 μM NADPH (257 μM final), and 4.5 mg/mL insulin (1.3 mg/mL final). After addition of all of the components to a cuvette, the reactions were incubated at room temperature for 60 min and terminated by the addition of 930 μL of 6 M guanidine•HCL containing 1 mM 5,5′-dithio-bis(2-nitrobenzoic acid) (DTNB) solution prepared in ethanol; activity was detected by reading absorbance at 412 nm in a spectrophotometer. TR activity was determined by calculating the difference between identical samples +/− Trx. Here the activity is expressed as arbitrary units as determined by the raw A412 reading. Alternatively, the number of units can be calculated by using Beer's Law and an extinction coefficient of 13,600 M^−1 cm^−1 for the TNB anion. One unit of TR activity is the amount of enzyme catalyzing the reduction of 1 μM of DTNB per min (formation of 2 μmol TNB anion).

[3] = target: T1, glutathione reductase (Homo sapiens, UniProt P00390); assay: Reduction of selenocystine by glutathione reductase in vitro; format: biochemical; details: same experimental conditions under which TR reduces selenocystine
T1 sequence (P00390 44-522): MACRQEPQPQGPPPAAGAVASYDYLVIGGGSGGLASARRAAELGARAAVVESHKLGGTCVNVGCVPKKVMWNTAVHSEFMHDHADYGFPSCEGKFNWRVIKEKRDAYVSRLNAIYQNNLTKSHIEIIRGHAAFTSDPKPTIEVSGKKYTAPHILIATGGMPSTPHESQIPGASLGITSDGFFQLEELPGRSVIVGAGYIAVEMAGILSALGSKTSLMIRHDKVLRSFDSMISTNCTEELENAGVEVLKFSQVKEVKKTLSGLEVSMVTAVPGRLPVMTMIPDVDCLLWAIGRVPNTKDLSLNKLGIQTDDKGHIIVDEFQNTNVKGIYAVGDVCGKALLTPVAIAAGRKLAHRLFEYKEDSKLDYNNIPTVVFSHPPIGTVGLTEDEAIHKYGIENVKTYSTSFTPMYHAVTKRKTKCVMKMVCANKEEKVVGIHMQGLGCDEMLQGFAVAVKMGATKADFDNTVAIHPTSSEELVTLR

[4] = system: TR1; assay: Immunoblot of TR1 expression after siRNA knockdown in C10 cells; format: cell-based, mouse; details: Western blot, FIG. 3E
Source text: TR over-expression and gene silencing. Full length TR1 was amplified from pCMV6-XL4 vector by PCR using specific forward (5′-[…]-3′) and reverse (5′-[…]-3′) primers and subsequently cloned into pcDNA 3.1 mammalian expression vector. Insertion of WT-TR1 full-length cDNA, including the 3′ SECIS element, into pcDNA 3.1 was confirmed by sequencing using the appropriate forward and reverse primer sets (T7 Forward: BGH Reverse). WT-TR1 or empty pcDNA 3.1 vector were transfected into C10 cells according to manufacturer's protocol. Specific siRNA to TR1 (si-TR1, 5′-[…]-3′) and a control (“scramble”) RNA (5′-[…]-3′) were introduced into C10 cells following the manufacturers guidelines (Dharmacon).
Immunoblotting. Equal protein amounts from cell lysates were separated on 10% gels by SDS-PAGE. Proteins were transferred to PVDF membrane for immunoblotting, and membranes then were blocked in 5% milk (Tris buffered saline with 0.1% Tween, TBST) for 1 hr at room temperature. Anti-TR1 (1:1000) anti-Trxl (1:2000) and anti-actin (1:5000) antibodies were diluted in 5% milk/TBST and incubated with membranes for 1 hr at room temperature. […] Membranes were washed 5× with TBST and HRP secondary antibodies were detected using Enhanced Chemiluminescent™ solution and collected on X-ray film.

In the case of CC(=O)OC[C@H]1O[C@@H]([S-])[C@H](OC(C)=O)[C@@H](OC(C)=O)[C@@H]1OC(C)=O.CCP(CC)CC.[Au+] [auranofin], the “Sensitivity of TR activity to inhibitor, TE buffer versus NP-40 buffer” value ([1]; lysates from treated C10 cells prepared in TE buffer or NP-40 lysis buffer, FIG. 4) is reported as “equivalent”.
In the case of C=CC=O [acrolein], the “Inhibition of TR activity in cells over expressing TR1 and TR2” value ([2]; C10 cells transfected with TR1 and TR2, TE buffer lysates, end-point assay, FIG. 2C) is reported as “inhibited to an equal extent”, the “Inhibition of TR activity” value [2] is reported as “inhibition of total TR activity” and the “Inhibition of TR activity” value ([2]; listed as Acrolein) is reported as “completely inhibits”. For the same compound, the “Inhibition of TR activity in cells over expressing TR1 and TR2” value ([1]; C10 cells transfected with TR1 and TR2, TE buffer lysates, SC-TR assay, FIG. 2D) was “inhibited to an equal extent”, the “Inhibition of TR activity (NADPH turnover, A340)” value ([1]; SC-TR assay) was “complete inhibition” and the “Inhibition of TR activity (NADPH turnover, A340)” value ([1]; SC-TR assay, listed as Acrolein) was “completely inhibits”.
For N[C@@H](C[Se][Se]C[C@H](N)C(=O)O)C(=O)O [L-selenocystine], the “Efficiency of reduction by TR” value [1] was “equal efficiencies”.
In the case of N[C@@H](C[Se][Se]C[C@H](N)C(=O)O)C(=O)O (racemic) [racemic selenocystine, selenocystine], the “Efficiency of reduction by TR” value [1] is reported as “equal efficiencies”.
For N[C@@H](C[Se][Se]C[C@H](N)C(=O)O)C(=O)O [selenocystine], the “Reduction of substrate by glutathione reductase” value [3] was “does not reduce”.
In the case of “siRNA: Specific siRNA to TR1 (si-TR1, 5′-CCAUAGAGGGCGAAUUUAAUU-3′) (listed as RNA, chemistry not given here)”, the “TR activity after knockdown of TR1” value ([1]; C10 cells transfected with siRNA, SC-TR assay, FIG. 3A) is reported as “reduced TR activity below control levels” and the “TR1 protein expression after knockdown” value [4] is reported as “reduced the expression of TR1 for up to 48 hrs”.
